Several values for one entry are separate records, joined by “and”; a condition that tells them apart may be missing. Identical values can stand only once.
Test system: B6C3F1/J mice
Assay: Large-scale lifespan screen of compounds in long-lived B6C3F1 hybrid mice
Format: in vivo, mouse
Conditions: for extension of mean lifespan: 15 per compound, dosed from 5 months of age throughout lifespan, relative to untreated controls; for extension of maximal lifespan: maximal lifespan = average lifespan of the 20% longest-lived mice
From the text: The majority of compounds included drugs currently used in medicine and drug-like molecules, with wide range of targets that span the entire pharmacological space.
The compounds were clustered into 62 drug classes based on their mechanism of action or cellular target. Screening a wide range of known compounds could potentially resolve two challenges. First, to analyze how distinct drug classes with common mechanisms of action affect aging in mammals. Second, to determine with no bias or predispositions which of the current pharmacological drugs can extend lifespan.
In this study, the inventors used a strain of long-lived B6C3F1 hybrid mice (C57BL/6J♀×C3H/HeJ♂) with well-characterized aging dynamics (Lipman 1999, Turturro, 1999). […] Each treatment group included 15 female mice per compound, while 335 females were used as controls. Three additional control groups included 60 female mice on dietary restriction (60% ad libitum), 60 female mice on a purified diet, and 60 male mice as gender control. Each compound treatment and diet intervention were administered to mice starting at 5 months of age, and continued throughout their lifespan. The primary endpoint was mouse mortality, from which we calculated mean lifespan, maximal lifespan, and the onset of morbidity for each experimental group. To calculate the statistical significance, the mean lifespan, maximal lifespan, and the onset of morbidity for each individual compound and drug class were compared to the lifespan distribution of untreated mice. […]

[1] = B6C3F1/J mice, compared to the lifespan distribution of untreated mice
[2] = female B6C3F1/J mice, dosed from 5 months of age, relative to controls

[Cl-].[Cl-].[Mg+2] [Magnesium Chloride]
effect on mean and/or maximal lifespan (in words) (mouse, in vivo): significantly extended

C[C@]12CC[C@@H]3c4ccc(O)cc4CC[C@H]3[C@@H]1CC[C@@H]2O [17β-estradiol]
effect on mean and/or maximal lifespan (in words) [1]: significantly shortened
reduction of mean lifespan [2]: 21%

C[C@@H]1O[C@@H](O[C@@H]2C=C3CC[C@@H]4[C@H](CC[C@]5(C)[C@@H](c6ccc(=O)oc6)CC[C@]45O)[C@@]3(C)CC2)[C@H](O)[C@H](O)[C@H]1O [Proscillaridin A]
effect on mean and/or maximal lifespan (in words) [1]: significantly extended
extension of mean lifespan (female B6C3F1/J mice): 16% and 16.4%
extension of onset of morbidity [2]: 40% and 39.9%

CCOC(=O)C(C)(C)Oc1ccc(Cl)cc1 [Clofibrate]
extension of maximal lifespan [2]: 20.9%
extension of maximal lifespan (female B6C3F1/J mice, dosed from 5 months of age, relative to controls, listed as clofibrate): 21%

O=C(O)CN(CCN(CC(=O)O)CC(=O)O)CCN(CC(=O)O)CC(=O)O [Pentetic acid, diethylene triamene pentaacetic acid]
effect on mean and/or maximal lifespan (in words) [1]: significantly extended
extension of mean lifespan (female B6C3F1/J mice): 16.1%
extension of mean lifespan (female B6C3F1/J mice, listed as pentetic acid): 16%

Inulin
effect on mean and/or maximal lifespan (in words) [1]: significantly extended
extension of mean lifespan (female B6C3F1/J mice): 16%
extension of maximal lifespan [2]: 18%

CC(=O)[O-].CC(=O)[O-].[Mg+2] [Magnesium Acetate]
effect on mean and/or maximal lifespan (in words) (mouse, in vivo): significantly extended

[Mg+2].[OH-].[OH-] [Magnesium Hydroxide]
effect on mean and/or maximal lifespan (in words) (mouse, in vivo): significantly extended

Reference: US10653715B2, “Methods and compositions for extending lifespan” (priority 2016, dated 2020)
